In patent EP4467141A1, “PYRAZOLO-QUINOLINES AS SELECTIVE INHIBITORS OF GENOTOXIC STRESS-INDUCED IKK/NF- KB PATHWAYS FOR CANCER THERAPY” (Max-Delbrück-Centrum für Molekulare Medizin in der …, priority 2023, dated 2024):

How the values were obtained:
Assay in all cases: Kinase panel study
Format in all cases: biochemical
Settings in all cases: read-out: Percentage of inhibition; for inhibition at 1 µM: 1000nM; for inhibition at 10 µM: 10000nM
ABL1 F317I = molecular target: T1, ABL1 F317I (Homo sapiens, UniProt P00519, F317I)
T1 construct: purchased Thermo Fisher Scientific
T1 sequence (P00519 whole entry F317I): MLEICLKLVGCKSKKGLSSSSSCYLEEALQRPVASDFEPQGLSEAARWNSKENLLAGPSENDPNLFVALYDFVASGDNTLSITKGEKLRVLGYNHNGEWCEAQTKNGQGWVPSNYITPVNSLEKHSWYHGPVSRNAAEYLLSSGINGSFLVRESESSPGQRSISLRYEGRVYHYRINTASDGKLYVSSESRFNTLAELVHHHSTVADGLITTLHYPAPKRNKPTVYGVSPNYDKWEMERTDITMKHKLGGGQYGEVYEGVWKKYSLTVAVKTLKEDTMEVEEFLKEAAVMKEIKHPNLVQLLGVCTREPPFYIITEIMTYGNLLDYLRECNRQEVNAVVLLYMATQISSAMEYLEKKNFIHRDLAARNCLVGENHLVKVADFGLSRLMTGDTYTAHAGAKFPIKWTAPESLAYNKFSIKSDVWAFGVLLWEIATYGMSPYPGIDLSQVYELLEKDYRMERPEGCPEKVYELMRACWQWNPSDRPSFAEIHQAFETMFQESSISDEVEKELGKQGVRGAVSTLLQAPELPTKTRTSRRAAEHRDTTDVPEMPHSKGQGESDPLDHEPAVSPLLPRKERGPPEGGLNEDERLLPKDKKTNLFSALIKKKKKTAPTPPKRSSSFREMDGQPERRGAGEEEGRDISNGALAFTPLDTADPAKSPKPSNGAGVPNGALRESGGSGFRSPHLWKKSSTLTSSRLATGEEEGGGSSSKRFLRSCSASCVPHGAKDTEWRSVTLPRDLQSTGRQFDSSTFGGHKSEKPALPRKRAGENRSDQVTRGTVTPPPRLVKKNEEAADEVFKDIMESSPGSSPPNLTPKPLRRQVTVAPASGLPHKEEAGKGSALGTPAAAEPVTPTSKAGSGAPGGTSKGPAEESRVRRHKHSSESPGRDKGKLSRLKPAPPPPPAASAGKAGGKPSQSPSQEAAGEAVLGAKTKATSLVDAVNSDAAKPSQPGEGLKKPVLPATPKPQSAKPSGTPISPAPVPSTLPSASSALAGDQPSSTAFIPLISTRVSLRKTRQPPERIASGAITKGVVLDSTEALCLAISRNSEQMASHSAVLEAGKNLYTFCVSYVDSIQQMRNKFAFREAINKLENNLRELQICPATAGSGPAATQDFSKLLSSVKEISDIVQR
In short: (§1)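 Readout is percentage kinase inhibition. Testing used 1 µM or 10 µM compound in externally run ZLyte/Adapta in vitro assays, and IC50 values were derived within the same panel.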

ABL1 F317L = molecular target: T2, ABL1 F317L (Homo sapiens, UniProt P00519, F317L)
T2 construct: purchased Thermo Fisher Scientific
T2 sequence (P00519 whole entry F317L): as the sequence (P00519 whole entry F317I) above, with I317L counted along it
In short: as §1

DYRK3 = molecular target: T3, DYRK3 (Homo sapiens, UniProt O43781)
T3 construct: purchased Thermo Fisher Scientific
T3 sequence (O43781 1-588): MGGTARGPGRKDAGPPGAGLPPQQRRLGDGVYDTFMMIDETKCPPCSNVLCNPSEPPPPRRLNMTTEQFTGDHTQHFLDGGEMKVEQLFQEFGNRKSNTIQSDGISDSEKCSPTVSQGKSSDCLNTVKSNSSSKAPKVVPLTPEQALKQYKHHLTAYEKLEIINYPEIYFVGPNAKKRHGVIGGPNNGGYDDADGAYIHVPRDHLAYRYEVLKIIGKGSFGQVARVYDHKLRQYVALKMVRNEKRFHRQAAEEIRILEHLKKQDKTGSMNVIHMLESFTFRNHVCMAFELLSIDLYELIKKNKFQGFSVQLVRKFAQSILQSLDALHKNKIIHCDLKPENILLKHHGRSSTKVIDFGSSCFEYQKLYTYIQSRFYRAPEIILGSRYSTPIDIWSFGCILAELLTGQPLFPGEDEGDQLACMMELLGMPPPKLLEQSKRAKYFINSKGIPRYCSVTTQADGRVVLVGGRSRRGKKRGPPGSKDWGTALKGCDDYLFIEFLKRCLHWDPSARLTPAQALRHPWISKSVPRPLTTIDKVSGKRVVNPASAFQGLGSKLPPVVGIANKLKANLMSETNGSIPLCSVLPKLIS
In short: as §1

EGFR (ErbB1) L858R = molecular target: T4, EGFR (ErbB1) L858R (Homo sapiens, UniProt P00533, L858R)
T4 construct: purchased Thermo Fisher Scientific
T4 sequence (P00533 25-1210 L858R): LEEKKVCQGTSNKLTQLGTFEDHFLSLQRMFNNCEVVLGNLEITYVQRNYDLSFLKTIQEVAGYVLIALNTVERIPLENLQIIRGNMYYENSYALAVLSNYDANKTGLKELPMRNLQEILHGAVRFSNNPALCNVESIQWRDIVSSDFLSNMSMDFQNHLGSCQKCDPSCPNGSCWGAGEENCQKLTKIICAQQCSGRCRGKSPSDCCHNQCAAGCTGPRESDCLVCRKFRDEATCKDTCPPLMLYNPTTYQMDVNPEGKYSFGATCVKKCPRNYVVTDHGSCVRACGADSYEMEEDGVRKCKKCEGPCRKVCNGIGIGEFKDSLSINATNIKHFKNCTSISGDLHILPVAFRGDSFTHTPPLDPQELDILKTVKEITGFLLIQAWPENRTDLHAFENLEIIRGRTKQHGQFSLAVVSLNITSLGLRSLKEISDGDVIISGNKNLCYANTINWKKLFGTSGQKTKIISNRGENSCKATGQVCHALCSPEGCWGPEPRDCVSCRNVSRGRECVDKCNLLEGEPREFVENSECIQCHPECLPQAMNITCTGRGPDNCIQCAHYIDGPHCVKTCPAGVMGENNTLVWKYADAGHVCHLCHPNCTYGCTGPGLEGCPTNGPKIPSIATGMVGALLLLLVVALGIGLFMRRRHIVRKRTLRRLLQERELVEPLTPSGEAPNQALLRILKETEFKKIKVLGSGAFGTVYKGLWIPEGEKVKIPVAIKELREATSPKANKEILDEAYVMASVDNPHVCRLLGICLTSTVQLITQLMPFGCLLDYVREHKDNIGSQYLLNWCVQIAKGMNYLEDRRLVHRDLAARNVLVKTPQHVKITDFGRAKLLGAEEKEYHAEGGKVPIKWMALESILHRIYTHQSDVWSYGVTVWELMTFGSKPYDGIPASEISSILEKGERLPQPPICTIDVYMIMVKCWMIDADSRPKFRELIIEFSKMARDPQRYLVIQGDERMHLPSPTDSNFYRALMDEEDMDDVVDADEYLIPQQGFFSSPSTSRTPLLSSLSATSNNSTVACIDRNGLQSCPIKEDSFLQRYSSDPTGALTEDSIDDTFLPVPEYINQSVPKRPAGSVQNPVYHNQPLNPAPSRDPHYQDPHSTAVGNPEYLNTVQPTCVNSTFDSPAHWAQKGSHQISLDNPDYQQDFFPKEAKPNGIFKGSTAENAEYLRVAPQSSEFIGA
In short: as §1

GSK3B (GSK3 beta) = molecular target: T5, GSK3B (GSK3 beta) (Homo sapiens, UniProt P49841)
T5 construct: purchased Thermo Fisher Scientific
T5 sequence (P49841 whole entry): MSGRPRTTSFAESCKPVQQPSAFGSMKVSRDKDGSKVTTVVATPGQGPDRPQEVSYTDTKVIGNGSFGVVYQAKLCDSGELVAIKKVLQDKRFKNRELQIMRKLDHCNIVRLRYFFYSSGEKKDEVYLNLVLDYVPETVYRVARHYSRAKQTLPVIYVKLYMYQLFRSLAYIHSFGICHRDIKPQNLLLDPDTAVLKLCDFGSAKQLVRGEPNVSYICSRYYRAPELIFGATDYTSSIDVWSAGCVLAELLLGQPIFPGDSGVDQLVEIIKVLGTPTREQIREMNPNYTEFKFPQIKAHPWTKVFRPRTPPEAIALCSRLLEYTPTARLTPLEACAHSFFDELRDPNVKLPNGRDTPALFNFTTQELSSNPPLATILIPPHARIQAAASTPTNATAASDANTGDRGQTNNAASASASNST
In short: as §1

JAK3 = molecular target: T6, JAK3 (Homo sapiens, UniProt P52333)
T6 construct: purchased Thermo Fisher Scientific
T6 sequence (P52333 1-1124): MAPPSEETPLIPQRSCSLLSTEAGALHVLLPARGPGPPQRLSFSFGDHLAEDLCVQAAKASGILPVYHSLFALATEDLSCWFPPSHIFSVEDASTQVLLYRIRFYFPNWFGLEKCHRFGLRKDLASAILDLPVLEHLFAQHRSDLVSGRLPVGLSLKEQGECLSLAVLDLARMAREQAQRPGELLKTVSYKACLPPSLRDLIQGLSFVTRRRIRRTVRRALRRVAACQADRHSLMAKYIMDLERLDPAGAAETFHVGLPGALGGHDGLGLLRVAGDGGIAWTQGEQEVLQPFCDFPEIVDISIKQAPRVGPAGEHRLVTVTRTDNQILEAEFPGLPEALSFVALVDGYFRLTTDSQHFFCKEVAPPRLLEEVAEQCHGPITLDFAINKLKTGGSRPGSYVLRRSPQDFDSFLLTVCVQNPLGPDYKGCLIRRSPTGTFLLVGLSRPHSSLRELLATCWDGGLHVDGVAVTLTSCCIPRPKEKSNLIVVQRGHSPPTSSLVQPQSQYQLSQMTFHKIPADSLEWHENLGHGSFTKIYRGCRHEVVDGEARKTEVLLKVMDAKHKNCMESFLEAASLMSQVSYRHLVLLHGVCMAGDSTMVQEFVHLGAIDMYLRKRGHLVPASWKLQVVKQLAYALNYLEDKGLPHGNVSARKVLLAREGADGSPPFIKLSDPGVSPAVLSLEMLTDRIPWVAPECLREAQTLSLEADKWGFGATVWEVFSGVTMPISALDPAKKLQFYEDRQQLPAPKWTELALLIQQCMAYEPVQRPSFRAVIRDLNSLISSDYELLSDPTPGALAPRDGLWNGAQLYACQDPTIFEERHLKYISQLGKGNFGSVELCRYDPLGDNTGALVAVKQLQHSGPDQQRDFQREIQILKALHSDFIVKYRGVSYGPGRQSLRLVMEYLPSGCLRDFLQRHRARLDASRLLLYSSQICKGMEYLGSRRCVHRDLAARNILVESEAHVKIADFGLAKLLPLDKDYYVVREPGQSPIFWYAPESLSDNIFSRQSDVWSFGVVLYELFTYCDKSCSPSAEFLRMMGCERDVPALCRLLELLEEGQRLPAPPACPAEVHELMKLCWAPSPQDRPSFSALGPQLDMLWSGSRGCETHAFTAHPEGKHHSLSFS
In short: as §1

LRRK2 R1441C = molecular target: T7, LRRK2 R1441C (Homo sapiens, UniProt Q5S007, R1441C)
T7 construct: purchased Thermo Fisher Scientific
T7 sequence (Q5S007 970-2527 R1441C limits assumed): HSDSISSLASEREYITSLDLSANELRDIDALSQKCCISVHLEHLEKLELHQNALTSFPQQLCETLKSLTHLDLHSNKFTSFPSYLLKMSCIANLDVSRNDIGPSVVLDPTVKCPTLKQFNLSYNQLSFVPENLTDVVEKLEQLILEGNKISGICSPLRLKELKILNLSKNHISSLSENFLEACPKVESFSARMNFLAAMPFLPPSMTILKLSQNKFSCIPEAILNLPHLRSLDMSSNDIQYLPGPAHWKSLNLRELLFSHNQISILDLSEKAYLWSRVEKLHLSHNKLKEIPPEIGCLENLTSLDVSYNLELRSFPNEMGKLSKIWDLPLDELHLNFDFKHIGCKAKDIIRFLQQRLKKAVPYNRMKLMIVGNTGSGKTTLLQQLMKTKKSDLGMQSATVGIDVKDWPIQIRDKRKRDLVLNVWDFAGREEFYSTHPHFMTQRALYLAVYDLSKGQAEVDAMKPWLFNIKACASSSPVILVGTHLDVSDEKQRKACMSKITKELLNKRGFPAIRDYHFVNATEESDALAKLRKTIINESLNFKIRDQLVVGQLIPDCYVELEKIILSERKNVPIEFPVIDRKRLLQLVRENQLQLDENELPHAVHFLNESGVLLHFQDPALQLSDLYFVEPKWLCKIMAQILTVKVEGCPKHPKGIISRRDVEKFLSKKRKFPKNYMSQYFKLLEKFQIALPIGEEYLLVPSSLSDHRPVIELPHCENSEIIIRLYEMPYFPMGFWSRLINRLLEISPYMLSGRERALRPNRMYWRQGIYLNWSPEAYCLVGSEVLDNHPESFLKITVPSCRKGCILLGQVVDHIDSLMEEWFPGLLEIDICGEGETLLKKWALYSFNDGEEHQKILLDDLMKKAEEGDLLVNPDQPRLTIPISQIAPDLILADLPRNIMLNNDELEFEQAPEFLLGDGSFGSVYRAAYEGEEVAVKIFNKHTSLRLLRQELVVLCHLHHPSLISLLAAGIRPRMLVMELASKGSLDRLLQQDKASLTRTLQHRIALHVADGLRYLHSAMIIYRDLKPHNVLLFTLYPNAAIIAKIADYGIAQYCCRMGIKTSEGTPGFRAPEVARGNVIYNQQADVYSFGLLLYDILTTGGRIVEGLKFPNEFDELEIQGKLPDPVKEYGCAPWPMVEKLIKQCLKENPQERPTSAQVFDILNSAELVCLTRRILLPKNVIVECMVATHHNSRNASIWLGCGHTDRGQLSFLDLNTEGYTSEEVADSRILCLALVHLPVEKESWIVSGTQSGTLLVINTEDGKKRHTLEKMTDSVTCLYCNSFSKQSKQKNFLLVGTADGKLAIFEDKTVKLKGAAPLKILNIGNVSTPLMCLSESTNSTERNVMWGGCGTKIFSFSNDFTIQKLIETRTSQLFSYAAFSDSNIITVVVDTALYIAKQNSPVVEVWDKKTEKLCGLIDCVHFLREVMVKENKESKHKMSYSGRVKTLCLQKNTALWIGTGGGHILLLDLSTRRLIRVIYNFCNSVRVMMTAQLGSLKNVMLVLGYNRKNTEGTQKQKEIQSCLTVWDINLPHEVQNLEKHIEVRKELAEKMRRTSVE
In short: as §1

SYK = molecular target: T8, SYK (Homo sapiens, UniProt P43405)
T8 construct: purchased Thermo Fisher Scientific
In short: as §1

SMILES	inhibition at 1 µM (ABL1 F317I)	inhibition at 10 µM (ABL1 F317I)	inhibition at 1 µM (ABL1 F317L)	inhibition at 10 µM (ABL1 F317L)	inhibition at 1 µM (DYRK3)	inhibition at 10 µM (DYRK3)	inhibition at 1 µM (EGFR (ErbB1) L858R)	inhibition at 10 µM (EGFR (ErbB1) L858R)	inhibition at 1 µM (GSK3B (GSK3 beta))	inhibition at 10 µM (GSK3B (GSK3 beta))	inhibition at 1 µM (JAK3)	inhibition at 10 µM (JAK3)	inhibition at 1 µM (LRRK2 R1441C)	inhibition at 10 µM (LRRK2 R1441C)	inhibition at 1 µM (SYK)	inhibition at 10 µM (SYK)
COc1ccc2c(c1OC)c(=O)n1c3ccc(O)cc3c3ccnc2c31 [MW01, 5-Hydroxy-10,11-dimethoxy-9H-benzo[c]indolo[3,2,1-ij][1,5]naphthyridin-9-one]	8%	19%	8%	13%	17%	43%	3%	5%	27%	52%	9%	20%	83%	86%	16%	37%
COc1ccc2cc3c(N)nn(C(=O)c4cccc(N(C)C)c4)c3nc2c1 [MW05, (3-Amino-7-methoxypyrazolo[3,4-b]quinolin-1-yl)-[3-(dimethylamino)phenyl]methanone]	6%	-1%	6%	4%	5%	7%	6%	16%	6%	14%	4%	-6%	-2%	3%	5%	7%
